# Measurements as given in publication PMC6272861, “In Vitro Inhibition of Human UDP-Glucuronosyl-Transferase (UGT) Isoforms by Astaxanthin, β-Cryptoxanthin, Canthaxanthin, Lutein, and Zeaxanthin: Prediction of in Vivo Dietary Supplement-Drug Interactions” (Molecules, 2016).
# How the values were obtained:
# UGT1A3 = molecular target: T1, UGT1A3 (Homo sapiens, UniProt P35503)
# T1 sequence (P35503 29-534): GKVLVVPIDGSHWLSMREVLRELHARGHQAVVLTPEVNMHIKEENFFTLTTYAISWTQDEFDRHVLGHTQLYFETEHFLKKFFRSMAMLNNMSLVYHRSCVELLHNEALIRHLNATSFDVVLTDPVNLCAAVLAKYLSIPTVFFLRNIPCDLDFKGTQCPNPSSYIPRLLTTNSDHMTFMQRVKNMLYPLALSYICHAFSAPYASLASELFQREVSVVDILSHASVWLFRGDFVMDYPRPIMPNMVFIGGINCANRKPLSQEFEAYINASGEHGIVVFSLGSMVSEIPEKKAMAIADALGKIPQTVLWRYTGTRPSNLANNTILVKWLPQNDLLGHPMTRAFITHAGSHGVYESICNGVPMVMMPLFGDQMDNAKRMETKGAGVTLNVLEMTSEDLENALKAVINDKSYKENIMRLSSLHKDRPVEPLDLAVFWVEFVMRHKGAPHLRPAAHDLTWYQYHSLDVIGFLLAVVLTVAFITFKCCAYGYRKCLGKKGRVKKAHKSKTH
# Procedure: (§2) The formation activities of β-estradiol-3-glucuronide, chenodeoxycholic acid 24-acyl-β-D-glucuronide, trifluoperazine-N-glucuronide, imipramine-N-β-D-glucuronide, serotonin-O-glucuronide, propofol-O-glucuronide, and zidovudine-5′-glucuronide were determined to probe the activities of UGT1A1, UGT1A3, UGT1A4, UGT1A6, UGT1A9 and UGT2B7, respectively, in human liver microsomes.
# (§3) In brief, the 90-µL incubation mixture, including pooled human liver microsomes (final concentration 0.25 mg/mL), 100 mM Tris buffer, 25 µg/mL alamethicin, 5 mM MgCl2, the UGT-selective substrates, and five xanthophylls (0–50 μM), were pre-incubated for 30 min on ice to allow formation of alamethicin pores. Reac2345tions were initiated by the addition of 10 μL of UDPGA (5 mM) to a final reaction volume of 0.1 mL and incubated at 37 °C for 60 min (except 30 min for UGT1A9) in a shaking water bath. After incubation, each reaction was stopped by adding 50 μL of ice-cold acetonitrile containing chlorpropamide (300 ng/mL) or theophylline (30 μg/mL or 300 μg/mL) as an internal standard. The mixtures were then centrifuged (13,000 g for 15 min at 4 °C) and 5-µL aliquots of the supernatants were injected into an LC-MS/MS system. […] All incubations were performed in triplicate, and mean values were used for analysis.
# (§4) Chromatographic separations were performed on an Agilent Poroshell 120 EC-C18 column (50 mm × 4.6-mm i.d.; 2.7-μm particle size; Agilent Technologies) to quantify β-estradiol-3-glucuronide (UGT1A1), chenodeoxycholic acid 24-acyl-β-D-glucuronide (UGT1A3), trifluoperazine-N-glucuronide (UGT1A4), propofol-O-glucuronide (UGT1A9), zidovudine-5′-glucuronide (UGT2B7), and 4-methylumbelliferyl glucuronide (UGT2B15); an Agilent Poroshell 120 EC-C18 column (100 × 4.6-mm i.d.; 2.7-mm particle size) was used for quantification of serotonin-O-glucuronide (UGT1A6). The isocratic mobile phase consisted of distilled water (A) and acetonitrile containing 0.1% formic acid (B) at a ratio (v/v) of 10:90 for chenodeoxycholic acid 24-acyl-β-D-glucuronide, 30:70 for trifluoperazine-N-glucuronide and zidovudine-5′-glucuronide, 50:50 for propofol-O-glucuronide and 4-methylumbelliferyl glucuronide, 65:35 for β-estradiol-3-glucuronide, and 90:10 for serotonin-O-glucuronide, at a flow rate of 0.5 mL/min. The total run time was 4.0 min per sample for each metabolite, with the exception of serotonin-O-glucuronide (6.0 min). Peak areas for all of the analytes were automatically integrated using Analyst software (version 1.5.2, Applied Biosystems, Foster City, CA, USA).
# (§5) The IC50 values were calculated via nonlinear least-squares regression analysis from plots of the logarithms of inhibitor concentration vs. the residual percentages of activities after inhibition, using WinNonlin (ver. 4.0; Pharsight, Mountain View, CA, USA).
# UGT1A9 = molecular target: T2, UGT1A9 (Homo sapiens, UniProt O60656); assay: Inhibition of UGT1A9 (propofol-O-glucuronidation) in human liver microsomes
# T2 sequence (O60656 26-530): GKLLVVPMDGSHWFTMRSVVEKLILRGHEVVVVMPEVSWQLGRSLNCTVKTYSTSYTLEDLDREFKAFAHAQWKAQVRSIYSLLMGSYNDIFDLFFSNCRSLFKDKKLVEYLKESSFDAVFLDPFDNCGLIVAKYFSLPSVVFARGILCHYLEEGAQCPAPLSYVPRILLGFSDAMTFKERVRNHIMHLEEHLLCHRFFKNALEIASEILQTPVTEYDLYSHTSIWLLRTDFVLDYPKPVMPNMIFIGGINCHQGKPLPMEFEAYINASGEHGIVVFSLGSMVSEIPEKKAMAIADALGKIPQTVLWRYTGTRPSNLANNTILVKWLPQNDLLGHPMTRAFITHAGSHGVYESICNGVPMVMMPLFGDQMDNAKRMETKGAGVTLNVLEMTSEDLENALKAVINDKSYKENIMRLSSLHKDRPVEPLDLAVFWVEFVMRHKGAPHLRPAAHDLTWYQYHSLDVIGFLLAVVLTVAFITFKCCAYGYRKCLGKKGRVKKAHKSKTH
# Procedure: as §2, §3, §4, §5
# UGT2B15 = molecular target: T3, UGT2B15 (Homo sapiens, UniProt P54855); assay: Inhibition of UGT2B15 (4-methylumbelliferyl glucuronidation) in recombinant human UGT2B15 supersomes; type: in vitro ADME; conditions: recombinant UGT2B15 supersomes, 250 μM 4-methylumbelliferone, mean ± SD of triplicate; read-out: IC50 towards UGT2B15
# T3 construct: purchased Corning Life Sciences
# T3 sequence (P54855 24-530): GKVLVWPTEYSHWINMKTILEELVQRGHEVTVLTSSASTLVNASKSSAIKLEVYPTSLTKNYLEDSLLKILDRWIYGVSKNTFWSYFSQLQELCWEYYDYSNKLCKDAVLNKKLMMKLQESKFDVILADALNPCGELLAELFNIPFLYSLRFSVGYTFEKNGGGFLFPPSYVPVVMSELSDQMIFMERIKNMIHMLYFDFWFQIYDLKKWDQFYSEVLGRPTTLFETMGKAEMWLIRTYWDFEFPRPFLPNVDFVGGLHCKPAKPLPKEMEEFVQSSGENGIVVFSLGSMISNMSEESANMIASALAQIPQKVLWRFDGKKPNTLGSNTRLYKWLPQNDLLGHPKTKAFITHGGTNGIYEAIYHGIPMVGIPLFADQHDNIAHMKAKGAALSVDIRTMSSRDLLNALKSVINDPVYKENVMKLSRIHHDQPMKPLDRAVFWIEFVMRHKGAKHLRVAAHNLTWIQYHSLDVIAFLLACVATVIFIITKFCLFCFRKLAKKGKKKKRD
# Procedure: Although S-oxazepam is a typical substrate of UGT2B15 of human liver microsomes, authentic S-oxazepam and the corresponding glucuronide are not commercially […]. Thus, the inhibition of AS, βC, CA, LU, and ZE on the UGT2B15 activity was assessed using 4-methylumbelliferone as the nonspecific probe substrate for all UGTs except UGT1A4 [34] in recombinant human UGT2B15 supersomes.
# The reaction was initiated by addition of 10 µL 5 mM UDPGA (to 100 µL total volume) followed by incubation for 120 min at 37 °C in a shaking water bath. Reactions were stopped by addition of 50 µL of ice-cold acetonitrile containing chlorpropamide (300 ng/mL) as an internal standard, and they were chilled and centrifuged (13,000 g, 15 min, 4 °C). An aliquot of 5 μL of supernatant was injected into an LC-MS/MS system. Additionally, identical parallel incubation samples containing a known UGT2B15 inhibitor amitriptyine (0–200 μM) was included as a positive control for UGT2B15.
# (§1) For visual inspection, data were presented as Dixon plots.
# UGT1A4 = molecular target: T4, UGT1A4 (Homo sapiens, UniProt P22310); assay: Inhibition of UGT1A4 (trifluoperazine-N-glucuronidation) in human liver microsomes; type: in vitro ADME; conditions: 4 μM trifluoperazine, mean ± SD of triplicate, read-out: IC50 towards UGT1A4
# T4 construct: pooled human liver microsomes (final concentration 0.25 mg/mL); tissue Corning Life Sciences; host or cells: pooled human liver microsomes, 150 donors
# T4 sequence (P22310 29-534): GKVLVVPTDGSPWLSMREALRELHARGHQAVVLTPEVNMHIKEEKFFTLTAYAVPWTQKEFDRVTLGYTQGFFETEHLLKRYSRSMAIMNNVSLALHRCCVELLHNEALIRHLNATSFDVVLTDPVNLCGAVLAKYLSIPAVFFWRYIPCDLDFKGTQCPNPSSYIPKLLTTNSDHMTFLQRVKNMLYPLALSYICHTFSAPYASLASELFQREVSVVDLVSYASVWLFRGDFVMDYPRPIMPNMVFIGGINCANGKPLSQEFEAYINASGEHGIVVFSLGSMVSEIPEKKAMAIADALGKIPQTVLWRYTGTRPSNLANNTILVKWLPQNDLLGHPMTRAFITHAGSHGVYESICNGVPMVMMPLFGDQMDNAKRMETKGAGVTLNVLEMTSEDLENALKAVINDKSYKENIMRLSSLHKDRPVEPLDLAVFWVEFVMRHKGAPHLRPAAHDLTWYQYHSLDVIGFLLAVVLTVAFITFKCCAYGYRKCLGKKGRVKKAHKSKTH
# Procedure: as §2, §3, §4, §5
# UGT1A1 = molecular target: T5, UGT1A1 (Homo sapiens, UniProt P22309); assay: Ki determination on UGT1A1 activity (β-estradiol-3-glucuronidation) in human liver microsomes; conditions: Dixon plots / nonlinear regression
# T5 sequence (P22309 26-533): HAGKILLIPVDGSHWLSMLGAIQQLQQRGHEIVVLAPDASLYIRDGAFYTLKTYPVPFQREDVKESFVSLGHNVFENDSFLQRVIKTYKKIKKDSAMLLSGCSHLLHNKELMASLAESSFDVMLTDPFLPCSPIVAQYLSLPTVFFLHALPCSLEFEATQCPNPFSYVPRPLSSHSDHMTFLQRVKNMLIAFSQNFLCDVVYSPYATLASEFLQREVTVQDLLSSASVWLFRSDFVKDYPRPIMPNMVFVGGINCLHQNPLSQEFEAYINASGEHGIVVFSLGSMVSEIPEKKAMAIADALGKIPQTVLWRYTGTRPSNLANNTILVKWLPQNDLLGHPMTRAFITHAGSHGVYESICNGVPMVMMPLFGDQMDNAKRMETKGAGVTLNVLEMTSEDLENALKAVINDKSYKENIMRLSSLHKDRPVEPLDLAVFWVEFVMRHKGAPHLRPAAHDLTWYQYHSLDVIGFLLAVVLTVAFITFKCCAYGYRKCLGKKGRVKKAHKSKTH
# Procedure: Based on the lowest IC50 value, the inhibitor constant (Ki) values of the βC for UGT1A1 were determined. […] All incubations were performed in triplicate, and the mean values were used for the analysis. Other procedures were similar to those of the reversible inhibition studies.
# as §1
# UGT2B7 = molecular target: T6, UGT2B7 (Homo sapiens, UniProt P16662); assay: Inhibition of UGT2B7 (zidovudine-5′-glucuronidation) in human liver microsomes
# T6 sequence (P16662 24-529): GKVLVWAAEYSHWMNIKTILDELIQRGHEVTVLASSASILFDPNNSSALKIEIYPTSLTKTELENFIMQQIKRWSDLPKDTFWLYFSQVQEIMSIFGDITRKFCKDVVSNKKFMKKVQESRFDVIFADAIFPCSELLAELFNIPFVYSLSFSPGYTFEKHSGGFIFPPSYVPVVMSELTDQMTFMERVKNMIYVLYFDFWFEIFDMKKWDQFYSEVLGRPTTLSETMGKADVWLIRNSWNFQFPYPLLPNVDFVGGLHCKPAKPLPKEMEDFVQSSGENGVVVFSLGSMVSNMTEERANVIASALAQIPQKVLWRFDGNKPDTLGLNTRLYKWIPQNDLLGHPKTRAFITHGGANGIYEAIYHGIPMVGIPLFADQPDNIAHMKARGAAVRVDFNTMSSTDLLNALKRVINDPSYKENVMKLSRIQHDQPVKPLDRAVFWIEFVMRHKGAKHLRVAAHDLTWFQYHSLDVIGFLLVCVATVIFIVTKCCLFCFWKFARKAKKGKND
# Procedure: as §2, §3, §4, §5
smiles,measurement,setting,value
"COc1cc2c(c(OC)c1OC)-c1c(cc(OC)c(OC)c1OC)C[C@H](C)[C@H](C)C2 [Deoxyschizandrin, deoxyschizandrin]",IC50,UGT1A3,5.17 ± 0.7 µM
"O=C(O)c1cccnc1Nc1cccc(C(F)(F)F)c1 [Niflumic acid, niflumic acid, reference compound]",IC50,UGT1A9,0.39 ± 0.0256 µM
"CN(C)CCC=C1c2ccccc2CCc2ccccc21 [Amitriptyline, amitriptyline, reference compound]",IC50,UGT2B15,69.4 ± 10.6 µM
"C[C@@H]1CC[C@@]2(OC1)O[C@H]1C[C@H]3[C@@H]4CC[C@H]5C[C@@H](O)CC[C@]5(C)[C@H]4CC(=O)[C@]3(C)[C@H]1[C@@H]2C [Hecogenin, hecogenin, reference compound]",IC50,UGT1A4,8.07 ± 2.6 µM
"Cc1cn(-c2cc(NC(=O)c3ccc(C)c(Nc4nccc(-c5cccnc5)n4)c3)cc(C(F)(F)F)c2)cn1 [Nilotinib, nilotinib, reference compound]",Mode of inhibition of UGT1A1,UGT1A1,competitive inhibition
"O=C1Nc2ccc(Cl)cc2[C@@](C#CC2CC2)(C(F)(F)F)O1 [Efavirenz, efavirenz, reference compound]",IC50,UGT2B7,37.8 ± 2.37 µM
